# Results from patent publication US11001561B2, “Pyrimidinone derivatives as SHP2 antagonists” (MERCK PATENT GMBH, priority 2019, dated 2021).
# Structures can show the parent of a compound that is named as a salt.
# Target: Full length SHP2 protein (Recombinant Human SHP-2) (Homo sapiens (Human), UniProt Q06124)
# Experiment: SHP2 biochemical assay (DiFMUP substrate, activating peptide IRSI_2pY)
# Details: activating peptide IRSI_2pY 140 nM, DiFMUP, 60 min; read-out: SHP-2 biochemical assay IC50
# Protocol: The inhibition of SHP2 by compounds of the invention was monitored using the surrogate substrate DiFMUP after protein activation by a peptide bearing two appropriately spaced phosphotyrosine. […] The generation of the DiFMU product by activated SHP2 was monitored through Fluorescence measurement with a PerkinElmer Envision reader. The inhibitor dose response curves were analyzed with Genedata Screener.
# Chain of Full length SHP2 protein (Recombinant Human SHP-2) (Q06124 2-593): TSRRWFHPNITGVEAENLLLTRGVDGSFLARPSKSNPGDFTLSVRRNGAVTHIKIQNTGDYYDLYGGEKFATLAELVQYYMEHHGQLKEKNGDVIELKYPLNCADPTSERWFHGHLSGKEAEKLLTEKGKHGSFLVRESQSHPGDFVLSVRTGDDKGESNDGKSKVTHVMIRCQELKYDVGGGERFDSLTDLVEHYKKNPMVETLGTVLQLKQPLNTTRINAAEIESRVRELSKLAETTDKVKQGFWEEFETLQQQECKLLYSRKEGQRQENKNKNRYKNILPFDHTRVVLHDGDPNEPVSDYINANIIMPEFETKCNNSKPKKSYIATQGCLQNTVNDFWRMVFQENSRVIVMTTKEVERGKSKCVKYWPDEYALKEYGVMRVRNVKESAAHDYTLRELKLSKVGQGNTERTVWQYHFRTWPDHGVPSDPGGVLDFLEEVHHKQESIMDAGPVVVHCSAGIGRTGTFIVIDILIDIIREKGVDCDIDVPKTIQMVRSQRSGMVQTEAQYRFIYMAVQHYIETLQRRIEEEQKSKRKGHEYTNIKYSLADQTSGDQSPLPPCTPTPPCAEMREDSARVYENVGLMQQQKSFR
row,SMILES,IC50
1,"Cc1nc(N2CCC(C)(N)CC2)c(Cl)c(=O)n1-c1cccc(Cl)c1Cl [Compound 10, 6-(4-amino-4-methylpiperidin-1-yl)-5-chloro-3-(2,3-dichlorophenyl)-2-methyl-3,4-dihydropyrimidin-4-one]",1.1 µM
2,"CC1(N)CCN(c2cc(=O)n(-c3cccc(Cl)c3Cl)c(C(F)F)n2)CC1 [Compound 11, 6-(4-amino-4-methylpiperidin-1-yl)-3-(2,3-dichlorophenyl)-2-(difluoromethyl)-3,4-dihydropyrimidin-4-one]",3.8 µM
3,"Cc1c(N2CCC(C)(N)CC2)nc(C)n(-c2cccc(Cl)c2Cl)c1=O [Compound 12, 6-(4-amino-4-methylpiperidin-1-yl)-3-(2,3-dichlorophenyl)-2,5-dimethyl-3,4-dihydropyrimidin-4-one]",1 µM
4,"Cc1nc(N2CCC3(CC2)CC3CN)cc(=O)n1-c1cccc(Cl)c1Cl (centres unmarked) [Compound 13, 6-[1-(aminomethyl)-6-azaspiro[2.5]octan-6-yl]-3-(2,3-dichlorophenyl)-2-methyl-3,4-dihydropyrimidin-4-one]",4.3 µM
5,"Cc1nc(N2CC3CCCC3(CN)C2)cc(=O)n1-c1cccc(Cl)c1Cl (centres unmarked) [Compound 14, 6-[3a-(aminomethyl)-octahydrocyclopenta[c]pyrrol-2-yl]-3-(2,3-dichlorophenyl)-2-methyl-3,4-dihydropyrimidin-4-one]",6.6 µM
6,"Cc1nc(N2CCC(CO)(CCN)CC2)cc(=O)n1-c1cccc(Cl)c1Cl [Compound 16, 6-[4-(2-aminoethyl)-4-(hydroxymethyl)piperidin--yl]-3-(2,3-dichlorophenyl)-2-methyl-3,4-dihydropyrimidin-4-one]",4.3 µM
7,"CC1(CN)CCN(c2cc(=O)n(-c3cccc(Cl)c3Cl)c(C(F)F)n2)CC1 [Compound 17, 6-[4-(aminomethyl)-4-methylpiperidin-1-yl]-3-(2,3-dichlorophenyl)-2-(difluoromethyl)-3,4-dihydropyrimidin-4-one]",3 µM
8,"Cc1nc(N2CCCC(C)(N)CC2)cc(=O)n1-c1cccc(Cl)c1Cl (centres unmarked) [Compound 21, 6-(4-amino-4-methylazepan-1-yl)-3-(2,3-dichlorophenyl)-2-methyl-3,4-dihydropyrimidin-4-one hydrochloride]",1.6 µM
9,"Cc1nc(N2CCC(N)(C(N)=O)CC2)cc(=O)n1-c1cccc(Cl)c1Cl [Compound 22, 4-amino-1-[1-(2,3-dichlorophenyl)-2-methyl-6-oxo-1,6-dihydropyrimidin-4-yl]piperidine-4-carboxamide]",2.1 µM
10,"Cc1nc(N2CCC(O)(CN)CC2)cc(=O)n1-c1cccc(Cl)c1Cl [Compound 28, 6-[4-(aminomethyl)-4-hydroxypiperidin-1-yl]-3-(2,3-dichlorophenyl)-2-methyl-3,4-dihydropyrimidin-4-one]",3.5 µM
11,"CNC1(C)CCN(c2cc(=O)n(-c3cccc(Cl)c3Cl)c(C)n2)CC1 [Compound 31, 3-(2,3-dichlorophenyl)-2-methyl-6-[4-methyl-4-(methylamino)piperidin-1-yl]-3,4-dihydropyrimidin-4-one]",0.56 µM
12,"CCc1c(N2CCC3(CC2)CO[C@@H](C)[C@H]3N)nc(C)n(-c2cccc(Cl)c2Cl)c1=O [Compound 36, 6-[(3S,4S)-4-amino-3-methyl-2-oxa-8-azaspiro[4.5]decan-8-yl]-3-(2,3-dichlorophenyl)-5-ethyl-2-methyl-3,4-dihydropyrimidin-4-one]",5 µM
13,"Cc1c(N2CCC(C)(N)CC2)nc(C)n(-c2ccc3ccccc3c2)c1=O [Compound 39, 6-(4-Amino-4-methyl-piperidin-1-yl)-2,5-dimethyl-3-naphthalen-2-yl-3H-pyrimidin-4-one]",> 10 µM
14,"Cc1nc(N2CCC(NC[C@@H](O)CO)CC2)cc(=O)n1-c1cccc(Cl)c1Cl [Compound 41, 3-(2,3-dichlorophenyl)-6-(4-{[(2R)-2,3-dihydroxypropyl]-amino}piperidin-1-yl)-2-methyl-3,4-dihydropyrimidin-4-one]",2.5 µM
15,"Cc1nc(N2CCC(NC[C@H](O)CO)CC2)cc(=O)n1-c1cccc(Cl)c1Cl [Compound 42, 3-(2,3-dichlorophenyl)-6-(4-{[(2S)-2,3-dihydroxypropyl]amino}-piperidin-1-yl)-2-methyl-3,4-dihydropyrimidin-4-one]",4.3 µM
16,"Cc1c(N2CCC(C)(N)CC2)nc(C)n(-c2cccc3ncsc23)c1=O [Compound 43, 6-(4-Amino-4-methyl-piperidin-1-yl)-3-benzothiazol-7-yl-2,5-dimethyl-3H-pyrimidin-4-one]",> 10 µM
17,"Cc1c(N2CCC(C)(CN)CC2)nc(C)n(-c2ccc3ccccc3c2)c1=O [Compound 44, 6-(4-Aminomethyl-4-rnethyl-piperidin-1-yl)-2,5-dimethyl-3-naphthalen-2-yl-3H-pyrimidin-4-one]",18 µM
18,"Cc1c(N2CCC3(CC2)CO[C@@H](C)[C@H]3N)nc(C)n(-c2ccc3ccccc3c2)c1=O [Compound 45, 6-((3S,4S)-4-Amino-3-methyl-2-oxa-8-aza-spiro[4.5]dec-8-yl)-2,5-dimethyl-3-naphthalen-2-yl-3H-pyrimidin-4-one]",1.2 µM
19,"COCC(O)CNC1CCN(c2cc(=O)n(-c3cccc(Cl)c3Cl)c(C)n2)CC1 (centres unmarked) [Compound 46, 3-(2,3-dichlorophenyl)-6-{4-[(2-hydroxy-3-methoxypropyl)-amino]piperidin-1-yl}-2-methyl-3,4-dihydropyrimidin-4-one]",> 10 µM
20,"Cc1c(N2CCC(C)(N)CC2)nc(C)n(-c2ccc3nccnc3c2)c1=O [Compound 47, 6-(4-Amino-4-methyl-piperidin-1-yl)-2,5-dimethyl-3-quinoxalin-6-yl-3H-pyrimidin-4-one]",> 10 µM
21,"Cc1c(N2CCC(C)(N)CC2)nc(C)n(-c2ccc3ccccc3c2Cl)c1=O [Compound 48, 6-(4-Amino-4-methyl-piperidin-1-yl)-3-(1-chloro-naphthalen-2-yl)-2,5-dimethyl-3H-pyrimidin-4-one]",18 µM
22,"Cc1nc(N2CCC(C)(NCC3CCC(O)CC3)CC2)cc(=O)n1-c1cccc(Cl)c1Cl (centres unmarked) [Compound 50, 3-(2,3-dichlorophenyl)-6-(4-{[(4-hydroxycyclohexyl)methyl]amino}-4-methylpiperidin-1-yl)-2-methyl-3,4-dihydropyrimidin-4-one]",0.56 µM
23,"Cc1c(N2CCc3cccc(N)c3C2)nc(C)n(-c2cccc(Cl)c2Cl)c1=O [Compound 51, 6-(8-amino-1,2,3,4-tetrahydroisoquinolin-2-yl)-3-(2,3-dichlorophenyl)-2,5-dimethyl-3,4-dihydropyrimidin-4-one]",> 10 µM
24,"Cc1c(N2CCC3(CC2)CO[C@@H](C)[C@H]3N)nc(C)n(-c2ccc3ccccc3c2Cl)c1=O [Compound 52, 6-((3S,4S)-4-Amino-3-methyl-2-oxa-8-aza-spiro[4.5]dec-8-yl)-3-(1-chloro-naphthalen-2-yl)-2,5-dimethyl-3H-pyrimidin-4-one]",0.59 µM
25,"Cc1c(N2CCC3(CC2)CO[C@@H](C)[C@H]3N)nc(C)n(-c2ccc3nccnc3c2)c1=O [Compound 53, 6-((3S,4S)-4-Amino-3-methyl-2-oxa-8-aza-spiro[4.5]dec-8-yl)-2,5-dimethyl-3-quinoxalin-6-yl-3H-pyrimidin-4-one]",6.1 µM
26,"Cc1c(N2CCC(C)(CN)CC2)nc(C)n(-c2ccc3ccccc3c2Cl)c1=O [Compound 54, 6-(4-Aminomethyl-4-methyl-piperidin-1-yl)-3-(1-chloro-naphthalen-2-yl)-2,5-dimethyl-3H-pyrimidin-4-one]",5.6 µM
